The test system of one data set is phospholipases. The note with it: cited from earlier work.
The nature of data set [1]: Retention of radio-labelled DPPC in the joint. Format: in vivo, horse. On the procedure: 4. More quantitative tests were undertaken in a further 4 horses administered radio-labelled 50 mg DPPC in 1 ml. The solution was injected into one contraleteral joint and the horse was sacrificed 2-10 days later when the cartilage was excised and synovial fluid collected for radio-assay.

Data set [2] can be described thus: Miscibility and physical state of phospholipid in propylene glycol. Format: physicochemical. The note with it: all concentrations / any proportion.
Data set [3] in a line: Inflammatory reaction of horse joints (protein, ALP, leucocyte count, specific gravity). The class given is in vivo. Particulars: 1 ml PG only, 6 horses. Here is the method: 5. Having established the extreme lubricity imparted by exogenous DPPC and the fact that it is likely to remain in the joint for long enough to be worthwhile clinically, the next step was to look for any inflammatory reaction.
The following parameters were used as indices of inflammatory reaction:
2. Alkaline phosphatase (ALP)
6. In the next series of trials, the joints of 6 horses were injected with 1 ml of PG only to see whether the solvent was the major cause of the inflammatory reaction.
7. The main series of trials was then devised to compare the inflammatory reaction of the radiocarpal joint to the product (100 mg DPPC in 1 mlPG) with the reactions to other agents commonly injected into that joint in the normal course of clinical practice.
The agents selected for comparison were
1. A standard clinical (1 ml) dose of prilocaine--a local anaesthetic.
2. A standard clinical dose of hyaluromic acid (Hyartil)™ (1 ml) a joint lubricant.

The conditions of data set [4]: cited from earlier work.

For the compound `CCCCCCCCCCCCCCCC(=O)OC[C@@H](COP(=O)([O-])OCC[N+](C)(C)C)OC(=O)CCCCCCCCCCCCCCC` [D-enantiomeric alpha-DPPC, alpha-dipalmitoyl phosphatidylcholine], in the data set with phospholipases, the “metabolism by endogenous phospholipases” value was “cannot break down”.

Regarding `CCCCCCCCCCCCCCCC(=O)OC[C@H](COP(=O)([O-])OCC[N+](C)(C)C)OC(=O)CCCCCCCCCCCCCCC` [DPPC, Dipalmitoyl phosphatidylcholine], the “retention of DPPC in the joint” value in data set [1] (conclusion) was “retained in the joint for long enough to enable lubrication to be maintained by monthly or fortnightly irrigation”. In addition, the “time the joint would remain lubricated after an injection” value in data set [1] (inferred from half-lives) is reported as “about one month”. Besides, the “miscibility with propylene glycol” value in data set [2] is listed as “totally miscible”.

In the case of `CCCCCCCCCCCCCCCC(=O)OC[C@H](COP(=O)([O-])OCC[N+](C)(C)C)OC(=O)CCCCCCCCCCCCCCC` [L-enantiomeric alpha-DPPC, alpha-dipalmitoyl phosphatidylcholine], the “metabolism by endogenous phospholipases” value in the data set with phospholipases is given as “capable of metabolising”.

On to `CC(O)CO` (centres unmarked) [PG, propylene glycol], for which the “solvent as the major cause of the inflammatory reaction” value in data set [3] was “This proved to be the case”. The “inflammatory reaction relative to hyaluronic acid” value in data set [4] (mammalian joints and other articulations) is given as “somewhat less severe”.

For the compound hyaluronic acid, the “inflammatory reaction in animal tissues” value in data set [4] (in vivo) was “appreciable inflammatory reaction”.

The record behind these values is patent publication US6133249A, “Phospholipid and propylene glycol based lubricant” (MacNaught Medical Pty Limited, priority 1995, dated 2000).
